Reference: patent US7494671B2, “Extract of Trapa natans and methods of using the same” (priority 2002, dated 2009)

Tests used:
Type in all cases: cell-based
Conditions in all cases: 50 ul saturated solution in 1 ml of cell media, in vitro
[1] = system: SW 480, colorectal cancer cells; assay: Cancer cell proliferation assay, SW 480
Method: (§1) […] For comparison purposes, the effects of two anticancer drugs, cisplatin and paclitaxel, on the growth of the three types of cancel cells were also determined in vitro.

HTB 72, melanoma cells = assay: Cancer cell proliferation assay, HTB 72
Method: as §1

[2] = system: Lncap, prostate cancer cells; assay: Cancer cell proliferation assay, Lncap
Method: as §1

SMILES	Inhibition, % SW 480 [1] [%]	Inhibition, % HTB 72 (HTB 72, melanoma cells) [%]	Inhibition, % Lncap [2] [%]
N.N.[Cl][Pt][Cl] [Cisplatin, cisplatin]	78.25	93.78	94.91
CC(=O)O[C@H]1C(=O)[C@@]2(C)[C@H]([C@H](OC(=O)c3ccccc3)[C@]3(O)C[C@H](OC(=O)[C@H](O)[C@@H](NC(=O)c4ccccc4)c4ccccc4)C(C)=C1C3(C)C)[C@]1(OC(C)=O)CO[C@@H]1C[C@@H]2O [Paclitaxel, paclitaxel]	0.0	22.61	57.98
